Laboratory results taken from patent US20080009418A1, “Selective Inhibitors” (Alchemia LTD., priority 2004, published 2008).

Tests used:
Human δ-opioid (DOP) = target: T1, Human δ-opioid (DOP) (Homo sapiens, UniProt P41143); experiment: Radioligand binding, human δ-opioid (DOP) membranes, FlashPlate, [3H]-Bremazocine; details: compound at 10 μM, [3H]-Bremazocine
T1 construct: purchased Perkin Elmer Biosignal
How it was run: (§1)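 Cloned human receptor membranes were coated onto FlashPlate wells and incubated with radioligand and compound (added from a 0.5 mM DMSO daughter plate) for 1 hour at room temperature in the dark. Scintillation counting gave percent inhibition, with DMSO defining total and reference ligand defining non-specific binding.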

Human κ-Opioid (KOP) = target: T2, Human κ-Opioid (KOP) (Homo sapiens, UniProt P41145); experiment: Radioligand binding, human κ-opioid (KOP) membranes, filtration, [3H]-Diprenorphine; details: compound at 10 μM, [3H]-Diprenorphine
T2 construct: purchased Perkin Elmer Biosignal
How it was run: (§2)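 Filtration binding on cloned human receptor membranes (1 Unit/well), [125I]-Substance P for NK1 and [3H]-Diprenorphine for KOP, 1 h at room temperature. Filters PEI-presoaked, washed with cold 50 mM Tris-HCl pH 7.4, counted by scintillation; percent inhibition calculated, reference ligand defining non-specific binding.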

Human Melanocortin (MC3) = target: T3, Human Melanocortin (MC3) (Homo sapiens, UniProt P41968); experiment: Radioligand binding, human melanocortin MC3 membranes, FlashPlate, [125I]-NDP-αMSH; details: compound at 10 μM, [125I]-NDP-αMSH
T3 construct: purchased Perkin Elmer Biosignal
How it was run: as §1

Human Melanocortin (MC4) = target: T4, Human Melanocortin (MC4) (Homo sapiens, UniProt P32245); experiment: Radioligand binding, human melanocortin MC4 membranes, FlashPlate, [125I]-NDP-αMSH; details: compound at 10 μM, [125I]-NDP-αMSH
T4 construct: purchased Perkin Elmer Biosignal
How it was run: as §1

Human melanocortin (MC5) = target: T5, Human melanocortin (MC5) (Homo sapiens, UniProt P33032); experiment: Radioligand binding, human melanocortin MC5 membranes, FlashPlate, [125I]-NDP-αMSH; details: compound at 10 μM, [125I]-NDP-αMSH
T5 construct: purchased Perkin Elmer Biosignal
How it was run: as §1

[1] = target: T6, Human melanin-concentrating hormone (MCH1) (Homo sapiens, UniProt Q99705); experiment: Radioligand binding, human melanin-concentrating hormone MCH1 membranes, FlashPlate, [125I]-S36057; details: compound at 10 μM
T6 construct: purchased Perkin Elmer Biosignal
How it was run: as §1

Human μ-opioid (MOP) = target: T7, Human μ-opioid (MOP) (Homo sapiens, UniProt P35372); experiment: Radioligand binding, human μ-opioid (MOP) membranes, FlashPlate, [3H]-Naloxone; details: compound at 10 μM, [3H]-Naloxone
T7 construct: purchased Perkin Elmer Biosignal
How it was run: as §1

Human neurokinin (NK1) = target: T8, Human neurokinin (NK1) (Homo sapiens, UniProt P25103); experiment: Radioligand binding, human neurokinin NK1 membranes, filtration, [125I]-Substance P; details: compound at 10 μM, [125I]-Substance P
T8 construct: purchased Perkin Elmer Biosignal
How it was run: as §2

[2] = target: T9, Human neuropeptide Y (NPY-Y1) (Homo sapiens, UniProt P25929); experiment: Radioligand binding, human neuropeptide Y NPY-Y1 membranes, FlashPlate, [125I]-PYY; details: compound at 10 μM, [125I]-PYY
T9 construct: purchased Perkin Elmer Biosignal
T9 sequence (P25929 1-384): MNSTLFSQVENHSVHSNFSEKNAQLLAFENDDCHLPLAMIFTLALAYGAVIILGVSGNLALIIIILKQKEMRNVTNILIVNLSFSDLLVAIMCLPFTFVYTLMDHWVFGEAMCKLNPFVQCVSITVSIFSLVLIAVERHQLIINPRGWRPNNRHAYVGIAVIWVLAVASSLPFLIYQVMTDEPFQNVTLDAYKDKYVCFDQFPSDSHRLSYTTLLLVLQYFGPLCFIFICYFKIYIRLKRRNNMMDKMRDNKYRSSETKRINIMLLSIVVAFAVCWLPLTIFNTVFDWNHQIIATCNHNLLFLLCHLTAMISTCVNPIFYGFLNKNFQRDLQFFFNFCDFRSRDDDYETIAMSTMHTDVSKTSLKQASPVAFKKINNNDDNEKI
How it was run: as §1

Human opioid (ORL1) = target: T10, Human opioid (ORL1) (Homo sapiens, UniProt P41146); experiment: Radioligand binding, human opioid ORL1 membranes, FlashPlate, [125I]-Nociceptin; details: compound at 10 μM, [125I]-Nociceptin
T10 construct: purchased Perkin Elmer Biosignal
How it was run: as §1

Mouse urotensin (mUR2) = target: T11, Mouse urotensin (mUR2) (Mus musculus, UniProt Q8VIH9); experiment: Radioligand binding, mouse urotensin mUR2 membranes, FlashPlate, [125I]-Urotensin II; details: compound at 10 μM, [125I]-Urotensin II
T11 construct: purchased Perkin Elmer Biosignal
T11 sequence (Q8VIH9 1-385): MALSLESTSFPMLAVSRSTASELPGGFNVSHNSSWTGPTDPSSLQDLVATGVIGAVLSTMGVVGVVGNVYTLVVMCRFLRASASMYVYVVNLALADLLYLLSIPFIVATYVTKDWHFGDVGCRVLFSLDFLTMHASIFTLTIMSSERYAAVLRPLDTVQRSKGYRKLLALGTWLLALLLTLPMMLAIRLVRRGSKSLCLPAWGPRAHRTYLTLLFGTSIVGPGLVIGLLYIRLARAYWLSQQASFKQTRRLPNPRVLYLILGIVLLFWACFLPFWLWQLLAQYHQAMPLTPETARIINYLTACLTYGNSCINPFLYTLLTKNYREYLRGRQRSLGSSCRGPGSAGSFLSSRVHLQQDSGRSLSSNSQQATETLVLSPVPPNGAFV
How it was run: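 Cloned mouse urotensin (mUR2) receptor membranes from Perkin Elmer Biosignal were immobilized in FlashPlate microplates using a proprietary coating. Each well got 19.5 μl buffer, then 0.5 μl of DMSO, reference ligand, or compound. Adding 5 μl of [125I]-Urotensin II, diluted to 5× final concentration in binding buffer, started binding. Plates were sealed with TopSeal-A and incubated 1 hour at room temperature in the dark. Wells were counted for 30 seconds each on a TopCount after a 60-second delay, and percentage inhibition was calculated.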

T1 sequence (P41143 whole entry): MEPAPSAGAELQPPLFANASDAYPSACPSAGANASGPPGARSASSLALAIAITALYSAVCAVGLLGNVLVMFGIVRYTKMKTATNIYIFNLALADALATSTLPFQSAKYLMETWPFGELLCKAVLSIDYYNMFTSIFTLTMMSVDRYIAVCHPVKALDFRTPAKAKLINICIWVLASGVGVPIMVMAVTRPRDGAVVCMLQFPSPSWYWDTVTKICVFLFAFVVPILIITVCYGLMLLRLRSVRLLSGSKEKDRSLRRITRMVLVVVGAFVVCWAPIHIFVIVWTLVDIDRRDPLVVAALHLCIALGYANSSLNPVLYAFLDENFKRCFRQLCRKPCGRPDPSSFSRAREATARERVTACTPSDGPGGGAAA
T2 sequence (P41145 whole entry): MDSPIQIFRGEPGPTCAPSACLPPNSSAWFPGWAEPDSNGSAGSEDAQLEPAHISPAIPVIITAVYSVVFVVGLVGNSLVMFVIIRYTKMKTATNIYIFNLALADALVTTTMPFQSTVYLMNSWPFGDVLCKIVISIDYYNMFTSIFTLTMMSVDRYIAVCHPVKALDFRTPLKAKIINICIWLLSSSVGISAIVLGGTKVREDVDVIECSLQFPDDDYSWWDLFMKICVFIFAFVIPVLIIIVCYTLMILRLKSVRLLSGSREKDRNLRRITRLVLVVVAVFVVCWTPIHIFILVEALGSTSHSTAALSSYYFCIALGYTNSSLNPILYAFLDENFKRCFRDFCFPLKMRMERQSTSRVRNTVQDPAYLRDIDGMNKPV
T6 sequence (Q99705 whole entry): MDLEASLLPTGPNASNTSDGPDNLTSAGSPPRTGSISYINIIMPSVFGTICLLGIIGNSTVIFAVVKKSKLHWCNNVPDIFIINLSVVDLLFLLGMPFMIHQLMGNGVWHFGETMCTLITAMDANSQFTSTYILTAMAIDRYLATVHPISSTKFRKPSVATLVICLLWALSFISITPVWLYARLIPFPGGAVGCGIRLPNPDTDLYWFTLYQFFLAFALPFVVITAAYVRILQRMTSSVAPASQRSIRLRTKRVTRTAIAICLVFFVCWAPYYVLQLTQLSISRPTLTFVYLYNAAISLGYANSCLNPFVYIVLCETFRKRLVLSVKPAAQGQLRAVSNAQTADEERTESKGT
T4 sequence (P32245 whole entry): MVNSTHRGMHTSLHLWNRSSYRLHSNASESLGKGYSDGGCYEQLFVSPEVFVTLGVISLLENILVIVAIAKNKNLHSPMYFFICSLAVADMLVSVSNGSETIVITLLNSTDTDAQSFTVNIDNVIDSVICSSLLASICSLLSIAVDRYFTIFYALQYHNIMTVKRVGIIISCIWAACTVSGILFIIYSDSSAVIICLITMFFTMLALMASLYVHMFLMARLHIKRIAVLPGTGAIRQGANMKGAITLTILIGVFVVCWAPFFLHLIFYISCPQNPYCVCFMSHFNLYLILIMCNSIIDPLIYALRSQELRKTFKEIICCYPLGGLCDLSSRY
T7 sequence (P35372 whole entry): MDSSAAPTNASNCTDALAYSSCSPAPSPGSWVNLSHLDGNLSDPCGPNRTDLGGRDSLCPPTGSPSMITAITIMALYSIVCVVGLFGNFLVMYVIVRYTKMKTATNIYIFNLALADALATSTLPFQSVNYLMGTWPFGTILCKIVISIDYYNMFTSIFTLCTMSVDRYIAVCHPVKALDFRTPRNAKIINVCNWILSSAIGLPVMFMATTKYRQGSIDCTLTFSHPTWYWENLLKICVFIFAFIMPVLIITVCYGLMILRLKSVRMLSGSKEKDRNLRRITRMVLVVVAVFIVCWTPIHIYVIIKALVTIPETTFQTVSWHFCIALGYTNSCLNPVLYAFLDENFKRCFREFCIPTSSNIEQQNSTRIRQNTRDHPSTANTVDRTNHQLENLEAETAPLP
T3 sequence (P41968 whole entry): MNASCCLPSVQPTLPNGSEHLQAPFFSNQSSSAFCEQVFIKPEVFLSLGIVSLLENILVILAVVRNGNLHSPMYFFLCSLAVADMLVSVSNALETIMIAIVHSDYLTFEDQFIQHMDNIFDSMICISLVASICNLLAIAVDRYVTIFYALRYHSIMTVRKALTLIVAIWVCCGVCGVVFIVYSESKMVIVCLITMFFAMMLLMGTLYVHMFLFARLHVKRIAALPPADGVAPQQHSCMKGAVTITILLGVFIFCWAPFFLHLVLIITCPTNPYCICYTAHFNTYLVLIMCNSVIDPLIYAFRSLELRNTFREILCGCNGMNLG
T8 sequence (P25103 whole entry): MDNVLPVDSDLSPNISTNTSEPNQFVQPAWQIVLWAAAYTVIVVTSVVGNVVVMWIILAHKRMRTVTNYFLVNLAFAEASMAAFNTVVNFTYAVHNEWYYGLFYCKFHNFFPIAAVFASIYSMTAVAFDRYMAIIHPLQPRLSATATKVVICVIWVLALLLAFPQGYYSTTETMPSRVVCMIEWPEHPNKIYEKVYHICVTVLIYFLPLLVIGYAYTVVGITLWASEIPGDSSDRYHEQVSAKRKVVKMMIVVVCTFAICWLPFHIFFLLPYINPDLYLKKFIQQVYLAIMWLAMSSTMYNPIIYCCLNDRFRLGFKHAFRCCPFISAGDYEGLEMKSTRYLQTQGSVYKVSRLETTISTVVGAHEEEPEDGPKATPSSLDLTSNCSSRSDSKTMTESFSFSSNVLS
T10 sequence (P41146 whole entry): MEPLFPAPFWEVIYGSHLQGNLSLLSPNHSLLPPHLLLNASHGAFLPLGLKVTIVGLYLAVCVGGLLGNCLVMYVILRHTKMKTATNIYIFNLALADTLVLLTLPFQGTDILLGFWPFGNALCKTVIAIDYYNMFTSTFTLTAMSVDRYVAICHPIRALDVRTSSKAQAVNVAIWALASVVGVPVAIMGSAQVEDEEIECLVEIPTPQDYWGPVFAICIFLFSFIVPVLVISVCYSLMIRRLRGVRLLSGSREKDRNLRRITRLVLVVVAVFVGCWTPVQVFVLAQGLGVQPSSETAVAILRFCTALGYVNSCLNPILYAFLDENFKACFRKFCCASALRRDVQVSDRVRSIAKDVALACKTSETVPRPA
T5 sequence (P33032 whole entry): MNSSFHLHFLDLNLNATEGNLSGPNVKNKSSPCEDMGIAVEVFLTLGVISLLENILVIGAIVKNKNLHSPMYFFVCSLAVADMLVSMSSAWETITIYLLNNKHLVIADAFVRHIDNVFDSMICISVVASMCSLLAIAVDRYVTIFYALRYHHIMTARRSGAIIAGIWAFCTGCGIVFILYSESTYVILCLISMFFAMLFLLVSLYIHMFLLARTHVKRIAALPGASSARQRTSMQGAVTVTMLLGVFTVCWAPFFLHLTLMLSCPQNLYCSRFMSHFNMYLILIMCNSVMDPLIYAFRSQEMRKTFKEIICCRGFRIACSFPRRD

CSC1OC(COCc2ccc3ccccc3c2)C(O)C(OCc2ccc3ccccc3c2)C1NC(=O)CCCNC(=N)N (stereo not shown) [compound 321]
A1: inhibition of radioligand binding, human δ-opioid (DOP) (Human δ-opioid (DOP)): − (“−” indicates less than 50% inhibition at 10 μM) | A2: inhibition of radioligand binding, human κ-opioid (KOP) (Human κ-Opioid (KOP)): − (“−” indicates less than 50% inhibition at 10 μM) | A3: inhibition of radioligand binding, human melanocortin (MC3) (Human Melanocortin (MC3)): + (“+” indicates greater than 50% inhibition at 10 μM) | A4: inhibition of radioligand binding, human melanocortin (MC4) (Human Melanocortin (MC4)): + (“+” indicates greater than 50% inhibition at 10 μM) | A5: inhibition of radioligand binding, human melanocortin (MC5) (Human melanocortin (MC5)): + (“+” indicates greater than 50% inhibition at 10 μM) | A6: inhibition of radioligand binding, human melanin-concentrating hormone (MCH1) ([1]; [125I]-S36057): + (“+” indicates greater than 50% inhibition at 10 μM) | A7: inhibition of radioligand binding, human μ-opioid (MOP) (Human μ-opioid (MOP)): − (“−” indicates less than 50% inhibition at 10 μM) | A8: inhibition of radioligand binding, human neurokinin (NK1) (Human neurokinin (NK1)): + (“+” indicates greater than 50% inhibition at 10 μM) | A9: inhibition of radioligand binding, human neuropeptide Y (NPY-Y1) [2]: − (“−” indicates less than 50% inhibition at 10 μM) | A10: inhibition of radioligand binding, human opioid (ORL1) (Human opioid (ORL1)): − (“−” indicates less than 50% inhibition at 10 μM) | A11: inhibition of radioligand binding, mouse urotensin (mUR2) (Mouse urotensin (mUR2)): − (“−” indicates less than 50% inhibition at 10 μM)

COC[C@H]1OC(OCc2ccc(-c3ccccc3)cc2)[C@H](NC(=O)CNC(=N)N)[C@@H](OCc2cccc(O)c2)[C@@H]1O (stereo partly shown) [compound 129]
A1 radioligand binding, percentage inhibition (Human δ-opioid (DOP)): − (“−” indicates less than 50% inhibition at 10 μM) | A2 radioligand binding, percentage inhibition (Human κ-Opioid (KOP)): − (“−” indicates less than 50% inhibition at 10 μM) | A3 radioligand binding, percentage inhibition (Human Melanocortin (MC3)): − (“−” indicates less than 50% inhibition at 10 μM) | A4 radioligand binding, percentage inhibition (Human Melanocortin (MC4)): − (“−” indicates less than 50% inhibition at 10 μM) | A5 radioligand binding, percentage inhibition (Human melanocortin (MC5)): − (“−” indicates less than 50% inhibition at 10 μM) | A6 radioligand binding, percentage inhibition ([1]; [125I]-S36057): − (“−” indicates less than 50% inhibition at 10 μM) | A7 radioligand binding, percentage inhibition (Human μ-opioid (MOP)): + (“+” indicates greater than 50% inhibition at 10 μM) | A8 radioligand binding, percentage inhibition (Human neurokinin (NK1)): − (“−” indicates less than 50% inhibition at 10 μM) | A9 radioligand binding, percentage inhibition [2]: − (“−” indicates less than 50% inhibition at 10 μM) | A10 radioligand binding, percentage inhibition (Human opioid (ORL1)): − (“−” indicates less than 50% inhibition at 10 μM) | A11 radioligand binding, percentage inhibition (Mouse urotensin (mUR2)): − (“−” indicates less than 50% inhibition at 10 μM)

N=C(N)NCC(=O)NC1C(OCc2ccc(-c3ccccc3)cc2)OC(COCc2ccc(Cl)cc2)C(O)C1OCc1ccc(Cl)cc1 (stereo not shown) [compound 401]
A1: inhibition of radioligand binding (Human δ-opioid (DOP); human DOP membranes): − (“−” indicates less than 50% inhibition at 10 μM) | A2: inhibition of radioligand binding (Human κ-Opioid (KOP); human KOP membranes): − (“−” indicates less than 50% inhibition at 10 μM) | A3: inhibition of radioligand binding (Human Melanocortin (MC3); human MC3 membranes): + (“+” indicates greater than 50% inhibition at 10 μM) | A4: inhibition of radioligand binding (Human Melanocortin (MC4); human MC4 membranes): + (“+” indicates greater than 50% inhibition at 10 μM) | A5: inhibition of radioligand binding (Human melanocortin (MC5); human MC5 membranes): + (“+” indicates greater than 50% inhibition at 10 μM) | A6: inhibition of radioligand binding ([1]; [125I]-S36057, human MCH1 membranes): + (“+” indicates greater than 50% inhibition at 10 μM) | A7: inhibition of radioligand binding (Human μ-opioid (MOP); human MOP membranes): − (“−” indicates less than 50% inhibition at 10 μM) | A8: inhibition of radioligand binding (Human neurokinin (NK1); human NK1 membranes): + (“+” indicates greater than 50% inhibition at 10 μM) | A9: inhibition of radioligand binding ([2]; human NPY-Y1 membranes): − (“−” indicates less than 50% inhibition at 10 μM) | A10: inhibition of radioligand binding (Human opioid (ORL1); human ORL1 membranes): + (“+” indicates greater than 50% inhibition at 10 μM) | A11: inhibition of radioligand binding (Mouse urotensin (mUR2); mouse mUR2 membranes): − (“−” indicates less than 50% inhibition at 10 μM)

COCC1OC(OCCc2ccccc2)C(NC(=O)CNC(=N)N)C(OCc2ccc(Cl)cc2)C1O (stereo not shown) [compound 220]
A1: inhibition of radioligand binding (Human δ-opioid (DOP); FlashPlate): − (“−” indicates less than 50% inhibition at 10 μM) | A2: inhibition of radioligand binding (Human κ-Opioid (KOP); filtration): − (“−” indicates less than 50% inhibition at 10 μM) | A3: inhibition of radioligand binding (Human Melanocortin (MC3); FlashPlate): + (“+” indicates greater than 50% inhibition at 10 μM) | A4: inhibition of radioligand binding (Human Melanocortin (MC4); FlashPlate): + (“+” indicates greater than 50% inhibition at 10 μM) | A5: inhibition of radioligand binding (Human melanocortin (MC5); FlashPlate): + (“+” indicates greater than 50% inhibition at 10 μM) | A6: inhibition of radioligand binding ([1]; [125I]-S36057, FlashPlate): − (“−” indicates less than 50% inhibition at 10 μM) | A7: inhibition of radioligand binding (Human μ-opioid (MOP); FlashPlate): − (“−” indicates less than 50% inhibition at 10 μM) | A8: inhibition of radioligand binding (Human neurokinin (NK1); filtration): + (“+” indicates greater than 50% inhibition at 10 μM) | A9: inhibition of radioligand binding ([2]; FlashPlate): − (“−” indicates less than 50% inhibition at 10 μM) | A10: inhibition of radioligand binding (Human opioid (ORL1); FlashPlate): − (“−” indicates less than 50% inhibition at 10 μM) | A11: inhibition of radioligand binding (Mouse urotensin (mUR2); FlashPlate): − (“−” indicates less than 50% inhibition at 10 μM)

COC[C@H]1OC(OCc2ccc3ccccc3c2)[C@H](NC(=O)CCCNC(=N)N)[C@@H](OCc2ccc3ccccc3c2)[C@@H]1O (stereo partly shown) [compound 339]
A1: inhibition of radioligand binding, human δ-opioid (DOP) (Human δ-opioid (DOP)): − (“−” indicates less than 50% inhibition at 10 μM) | A2: inhibition of radioligand binding, human κ-opioid (KOP) (Human κ-Opioid (KOP)): − (“−” indicates less than 50% inhibition at 10 μM) | A3: inhibition of radioligand binding, human melanocortin (MC3) (Human Melanocortin (MC3)): − (“−” indicates less than 50% inhibition at 10 μM) | A4: inhibition of radioligand binding, human melanocortin (MC4) (Human Melanocortin (MC4)): + (“+” indicates greater than 50% inhibition at 10 μM) | A5: inhibition of radioligand binding, human melanocortin (MC5) (Human melanocortin (MC5)): + (“+” indicates greater than 50% inhibition at 10 μM) | A6: inhibition of radioligand binding, human melanin-concentrating hormone (MCH1) ([1]; [125I]-S36057): + (“+” indicates greater than 50% inhibition at 10 μM) | A7: inhibition of radioligand binding, human μ-opioid (MOP) (Human μ-opioid (MOP)): + (“+” indicates greater than 50% inhibition at 10 μM) | A8: inhibition of radioligand binding, human neurokinin (NK1) (Human neurokinin (NK1)): + (“+” indicates greater than 50% inhibition at 10 μM) | A9: inhibition of radioligand binding, human neuropeptide Y (NPY-Y1) [2]: − (“−” indicates less than 50% inhibition at 10 μM) | A10: inhibition of radioligand binding, human opioid (ORL1) (Human opioid (ORL1)): − (“−” indicates less than 50% inhibition at 10 μM) | A11: inhibition of radioligand binding, mouse urotensin (mUR2) (Mouse urotensin (mUR2)): − (“−” indicates less than 50% inhibition at 10 μM)
